The results in this text go back to patent US20260248775A1, “NEW INHIBITORS OF PHOSPHATIDYLINOSITOL 3-KINASE” (INSTITUT NATIONAL DE LA SANTÉ ET DE LA RECHERCHE MÉDICALE, priority 2022, published 2026).

Structures are written as SMILES. Some results are limits rather than exact numbers.

Data set [1] concerns the target PI3K-α (PI3K p110a/p65a (h)) (Homo sapiens, UniProt P42336). The data set is described as follows: PI3K-inhibitory activity, enzymatic HTRF assay, PI3K-α. In kind it is biochemical. As to conditions: 10 μM PIP2, 30 minutes at room temperature, read-out: Class IC50 PI3K-α. The protocol:
(§1) Inhibitory activity of compounds against the Human PtdIns (4,5) P 3-kinase activity was quantified employing the enzymatic HTRF (Homogeneous Time Resolved Fluorescence) Assay.
(§2) PI3K p110a/[…] (h) is incubated in assay buffer containing 10 μM phosphatidylinositol 4,5-bisphosphate and Mg/ATP (concentration as required). The reaction is initiated by the addition of the ATP solution. After incubation for 30 minutes at room temperature, the reaction is stopped by the addition of stop solution containing EDTA and biotinylated phosphatidylinositol-3,4,5-trisphosphate. Finally, detection buffer is added, which contains europium-labelled anti-GST monoclonal antibody, GST-tagged GRP1 PH domain and streptavidin allophycocyanin. The plate is then read in time resolved fluorescence mode and the homogeneous time-resolved fluorescence (HTRF) signal is determined according to the formula HTRF=10000×(Em665 nm/Em620 nm)

A further data set has as its target PI3K-β (Homo sapiens, UniProt P42338). Briefly: PI3K-inhibitory activity, enzymatic HTRF assay, PI3K-β. In kind it is biochemical. As to conditions: read-out: Class IC50 PI3K-β. How it is done:
[The procedure below names another target; the source lists this target under the same test.] as §1, §2
(In general: Time-resolved FRET reads energy transfer from a long-lived donor to a nearby acceptor.)

Another data set concerns the target PI3K-γ (Homo sapiens, UniProt P48736). The data set is described as follows: PI3K-inhibitory activity, enzymatic HTRF assay, PI3K-γ. The conditions noted are these: read-out: Class IC50 PI3K-γ. In kind it is biochemical. The protocol:
[The procedure below names another target; the source lists this target under the same test.] as §1, §2

A further data set deals with PI3K-δ (Homo sapiens, UniProt O00329). The data set is described as follows: PI3K-inhibitory activity, enzymatic HTRF assay, PI3K-δ. As to conditions: read-out: Class IC50 PI3K-δ. The class given is biochemical.
Sequence of PI3K-δ (O00329 whole entry): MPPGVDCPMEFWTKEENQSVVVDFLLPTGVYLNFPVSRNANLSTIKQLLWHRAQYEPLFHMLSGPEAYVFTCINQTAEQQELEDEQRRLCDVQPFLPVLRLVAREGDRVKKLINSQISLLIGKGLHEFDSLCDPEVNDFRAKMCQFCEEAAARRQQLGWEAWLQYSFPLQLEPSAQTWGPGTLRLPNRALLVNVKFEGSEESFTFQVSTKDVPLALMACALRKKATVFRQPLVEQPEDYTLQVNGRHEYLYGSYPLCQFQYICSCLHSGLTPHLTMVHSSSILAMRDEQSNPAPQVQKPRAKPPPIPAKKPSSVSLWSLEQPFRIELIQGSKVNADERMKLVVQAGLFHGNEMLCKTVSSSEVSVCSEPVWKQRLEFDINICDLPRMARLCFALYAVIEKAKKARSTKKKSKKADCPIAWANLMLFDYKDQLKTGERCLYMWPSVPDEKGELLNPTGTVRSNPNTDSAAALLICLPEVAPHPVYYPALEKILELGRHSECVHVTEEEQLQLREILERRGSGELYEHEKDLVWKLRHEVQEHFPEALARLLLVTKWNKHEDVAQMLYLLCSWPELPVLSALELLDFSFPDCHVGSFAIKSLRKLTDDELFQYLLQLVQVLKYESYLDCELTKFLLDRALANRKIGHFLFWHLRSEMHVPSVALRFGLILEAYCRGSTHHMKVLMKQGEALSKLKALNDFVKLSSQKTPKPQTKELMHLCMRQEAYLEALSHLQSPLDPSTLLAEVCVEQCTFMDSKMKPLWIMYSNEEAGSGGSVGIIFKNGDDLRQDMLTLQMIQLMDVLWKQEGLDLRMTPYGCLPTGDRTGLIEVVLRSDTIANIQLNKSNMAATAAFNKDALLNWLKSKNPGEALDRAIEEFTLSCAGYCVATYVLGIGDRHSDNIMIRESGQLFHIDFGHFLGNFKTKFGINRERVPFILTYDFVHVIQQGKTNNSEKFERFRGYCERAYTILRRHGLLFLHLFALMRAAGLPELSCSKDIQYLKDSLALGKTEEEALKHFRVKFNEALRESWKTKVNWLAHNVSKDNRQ
Sequence of PI3K-δ (P27986 whole entry partner): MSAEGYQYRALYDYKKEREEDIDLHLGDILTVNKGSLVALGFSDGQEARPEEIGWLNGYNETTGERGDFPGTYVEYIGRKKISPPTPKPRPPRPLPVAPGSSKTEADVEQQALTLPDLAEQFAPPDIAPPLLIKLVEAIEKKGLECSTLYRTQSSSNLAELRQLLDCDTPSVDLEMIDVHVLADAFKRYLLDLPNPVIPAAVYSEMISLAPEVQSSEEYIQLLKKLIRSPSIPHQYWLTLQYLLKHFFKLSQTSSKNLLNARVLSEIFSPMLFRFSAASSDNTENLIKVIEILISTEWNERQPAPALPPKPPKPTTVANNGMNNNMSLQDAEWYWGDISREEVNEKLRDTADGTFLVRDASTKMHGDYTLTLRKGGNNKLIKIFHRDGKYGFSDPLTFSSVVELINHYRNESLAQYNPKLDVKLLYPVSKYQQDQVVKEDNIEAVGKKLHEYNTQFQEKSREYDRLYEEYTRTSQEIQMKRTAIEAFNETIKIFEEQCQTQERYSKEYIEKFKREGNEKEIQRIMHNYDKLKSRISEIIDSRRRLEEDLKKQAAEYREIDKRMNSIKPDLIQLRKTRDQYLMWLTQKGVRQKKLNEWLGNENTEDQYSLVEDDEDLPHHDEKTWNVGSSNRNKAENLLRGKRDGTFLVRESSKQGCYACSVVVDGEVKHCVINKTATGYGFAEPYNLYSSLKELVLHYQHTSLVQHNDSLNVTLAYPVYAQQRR
Another data set relates to NZBWF1/J mice. The data set is described as follows: Kidney lesions in lupus model, uninephrectomized NZBWF1/J mice. The conditions noted are these: 50 mg/kg/day orally. The class given is in vivo, mouse. How it is done:
FIG. 1 (A to C) illustrates the ability of Compound 5 of the invention to improve kidney lesions in NZBWF1/J mouse model. A. Urinary albumin to creatinine ratio (Ualb/Cre) (Ordinate, mg/mmol). Abscissa (From left to right): Vehicle and Compound 5 (50 mg/kg). B. Blood urea nitrogen level (BUN) (Ordinate, mmol/L). Abscissa (From left to right): Vehicle and Compound 5 (50 mg/kg). C. Glomerular lesion score of kidneys 4 weeks after uninephrectomy followed by treatment with either the vehicle or Compound 5 (n=6 mice per group). AU: Arbitrary Unit (Ordinate). Abscissa (From left to right): Vehicle and Compound 5 (50 mg/kg).
NZBWF1/J mice gradually develop immune glomerulonephritis characterized by proteinuria and kidney dysfunction starting around 25 weeks of age. The uninephrectomy model was employed and uninephrectomy was performed on 12 female mice at 24 weeks of age.
As the incidence and severity of symptoms are more pronounced in females, only females were used in this study. The mice were then randomly assigned to receive either the vehicle (n=6) or Compound 5 50 mg/kg/day orally (n=6) for a duration of 4 weeks. At the end of the treatment period, the mice were sacrificed and their kidney histology was compared to samples obtained during the uninephrectomy procedure.

Data set [2] in a line: Blood glucose after repeated oral gavage in C57B16 mice. In kind it is in vivo, mouse. As to conditions: 50 mg/kg oral gavage daily for 5 days, measured on day 6, C57B16 mice, vs vehicle. How it is done:
C57B16 mice (n=6 mice per group, 3 males and 3 females) aged of 8 weeks old were daily treated by either vehicle or Compound 5 (50 mg/kg) during 5 consecutive days through oral gavage.
On day 6, blood glucose concentrations were measured at different time points before and after drug administration.

The nature of data set [3]: Blood insulin concentration after repeated oral gavage in C57B16 mice. In kind it is in vivo, mouse. The conditions noted are these: 50 mg/kg oral gavage daily for 5 days, plasma on day 6, male C57B16 mice, FIG. 2. How it is done:
FIG. 2 illustrates the variation of insulin over time for the groups of mice treated either with a vehicle or with Compound 5 of the invention. Ordinate: insulin (ng/ml). Abscissa: time (hours).
C57B16 mice (n=3 mice per group, 3 males) aged of 8 weeks old were daily treated by either vehicle or Compound 5 (50 mg/kg) during 5 consecutive days through oral gavage. On day 6, insulin concentrations were measured at different time points before and after drug administration.
Insulin level was measured in plasma (7 μL in duplicate) using MSD u.plex (Mesoscale, ref 1526HK).

Sequence of PI3K-β (P42338 whole entry): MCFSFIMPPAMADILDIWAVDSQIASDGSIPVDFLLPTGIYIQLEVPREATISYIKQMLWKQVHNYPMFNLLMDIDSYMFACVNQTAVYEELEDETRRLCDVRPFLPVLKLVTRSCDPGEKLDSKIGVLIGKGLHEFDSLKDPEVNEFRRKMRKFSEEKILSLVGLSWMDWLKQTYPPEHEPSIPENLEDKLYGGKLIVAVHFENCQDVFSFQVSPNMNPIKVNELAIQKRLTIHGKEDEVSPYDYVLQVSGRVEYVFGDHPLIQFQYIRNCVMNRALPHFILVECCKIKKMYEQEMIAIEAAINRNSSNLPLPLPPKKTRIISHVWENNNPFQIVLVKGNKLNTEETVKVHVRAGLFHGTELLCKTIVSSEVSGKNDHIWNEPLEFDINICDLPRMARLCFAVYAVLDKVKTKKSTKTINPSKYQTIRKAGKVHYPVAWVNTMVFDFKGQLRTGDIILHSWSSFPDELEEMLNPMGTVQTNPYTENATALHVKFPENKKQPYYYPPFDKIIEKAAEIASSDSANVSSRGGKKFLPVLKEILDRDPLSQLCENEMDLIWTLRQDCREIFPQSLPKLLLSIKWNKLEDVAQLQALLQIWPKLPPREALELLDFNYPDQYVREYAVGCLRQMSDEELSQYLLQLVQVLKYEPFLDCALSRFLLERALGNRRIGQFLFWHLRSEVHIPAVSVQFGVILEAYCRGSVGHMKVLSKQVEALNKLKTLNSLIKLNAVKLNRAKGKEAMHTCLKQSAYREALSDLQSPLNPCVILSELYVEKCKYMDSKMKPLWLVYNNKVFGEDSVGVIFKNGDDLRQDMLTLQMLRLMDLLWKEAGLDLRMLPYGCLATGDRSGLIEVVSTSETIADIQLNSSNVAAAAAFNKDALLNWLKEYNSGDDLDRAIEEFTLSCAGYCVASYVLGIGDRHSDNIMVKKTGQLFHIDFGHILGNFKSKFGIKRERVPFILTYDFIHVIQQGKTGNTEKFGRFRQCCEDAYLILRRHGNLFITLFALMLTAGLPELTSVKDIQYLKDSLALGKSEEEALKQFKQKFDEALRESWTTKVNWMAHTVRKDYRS
Sequence of PI3K-β (P27986 whole entry partner): as the sequence (P27986 whole entry partner) above
Sequence of PI3K-α (PI3K p110a/p65a (h)) (P42336 whole entry): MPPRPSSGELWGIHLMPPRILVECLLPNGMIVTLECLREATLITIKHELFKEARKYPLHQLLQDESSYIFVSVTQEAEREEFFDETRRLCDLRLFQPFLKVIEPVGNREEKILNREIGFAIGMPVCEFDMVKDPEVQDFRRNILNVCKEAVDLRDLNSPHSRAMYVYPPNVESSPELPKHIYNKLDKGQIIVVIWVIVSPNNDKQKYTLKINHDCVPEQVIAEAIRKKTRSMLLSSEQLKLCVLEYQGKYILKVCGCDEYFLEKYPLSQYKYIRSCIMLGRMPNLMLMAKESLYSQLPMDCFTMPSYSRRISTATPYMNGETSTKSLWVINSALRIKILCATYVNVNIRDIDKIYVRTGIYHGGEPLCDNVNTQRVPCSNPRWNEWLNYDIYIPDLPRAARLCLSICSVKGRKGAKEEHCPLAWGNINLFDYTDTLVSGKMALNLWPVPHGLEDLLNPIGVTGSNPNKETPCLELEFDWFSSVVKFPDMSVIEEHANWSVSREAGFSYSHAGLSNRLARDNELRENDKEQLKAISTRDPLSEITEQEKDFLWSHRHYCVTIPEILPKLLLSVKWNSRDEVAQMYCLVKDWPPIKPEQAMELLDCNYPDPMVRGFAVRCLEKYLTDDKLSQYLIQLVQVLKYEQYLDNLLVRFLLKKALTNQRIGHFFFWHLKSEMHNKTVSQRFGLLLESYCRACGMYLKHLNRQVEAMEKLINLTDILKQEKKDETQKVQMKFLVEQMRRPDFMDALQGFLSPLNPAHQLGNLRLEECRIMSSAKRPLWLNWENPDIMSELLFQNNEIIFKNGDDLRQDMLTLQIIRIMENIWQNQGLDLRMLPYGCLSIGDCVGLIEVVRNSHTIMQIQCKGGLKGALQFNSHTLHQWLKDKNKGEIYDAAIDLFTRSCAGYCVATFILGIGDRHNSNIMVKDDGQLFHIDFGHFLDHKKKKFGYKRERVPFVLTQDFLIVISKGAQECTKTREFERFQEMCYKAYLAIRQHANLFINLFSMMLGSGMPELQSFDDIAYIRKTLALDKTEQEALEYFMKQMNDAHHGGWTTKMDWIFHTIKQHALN
Sequence of PI3K-γ (P48736 whole entry): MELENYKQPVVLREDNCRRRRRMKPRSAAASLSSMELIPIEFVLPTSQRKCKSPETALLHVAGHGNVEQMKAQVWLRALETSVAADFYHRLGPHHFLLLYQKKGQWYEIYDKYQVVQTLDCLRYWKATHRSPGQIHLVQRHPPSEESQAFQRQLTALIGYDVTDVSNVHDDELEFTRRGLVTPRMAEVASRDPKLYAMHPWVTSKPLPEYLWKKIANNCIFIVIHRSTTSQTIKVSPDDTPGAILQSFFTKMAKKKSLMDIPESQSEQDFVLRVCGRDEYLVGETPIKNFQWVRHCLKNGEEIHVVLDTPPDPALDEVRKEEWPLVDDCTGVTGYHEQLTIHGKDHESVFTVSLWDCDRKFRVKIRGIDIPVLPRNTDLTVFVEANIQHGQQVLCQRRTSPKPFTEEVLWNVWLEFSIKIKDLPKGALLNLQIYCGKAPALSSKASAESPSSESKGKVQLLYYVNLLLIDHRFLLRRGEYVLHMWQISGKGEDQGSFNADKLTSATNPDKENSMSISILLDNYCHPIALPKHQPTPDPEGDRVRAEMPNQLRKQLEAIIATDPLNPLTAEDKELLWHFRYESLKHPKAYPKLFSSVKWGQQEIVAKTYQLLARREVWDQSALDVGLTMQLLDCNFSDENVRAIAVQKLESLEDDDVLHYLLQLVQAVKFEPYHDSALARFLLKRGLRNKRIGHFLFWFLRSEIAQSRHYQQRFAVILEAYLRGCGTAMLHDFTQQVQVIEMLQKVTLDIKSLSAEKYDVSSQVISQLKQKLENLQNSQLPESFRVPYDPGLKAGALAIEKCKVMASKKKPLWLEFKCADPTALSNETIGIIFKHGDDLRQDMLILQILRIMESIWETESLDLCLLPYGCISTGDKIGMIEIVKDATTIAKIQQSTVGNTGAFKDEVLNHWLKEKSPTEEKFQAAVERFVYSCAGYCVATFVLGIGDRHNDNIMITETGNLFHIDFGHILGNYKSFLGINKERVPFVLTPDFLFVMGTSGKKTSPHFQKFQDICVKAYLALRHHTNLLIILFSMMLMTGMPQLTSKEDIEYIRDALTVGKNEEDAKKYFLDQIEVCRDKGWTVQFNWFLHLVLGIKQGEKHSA

The term IC50 denotes the concentration needed to halve the response being measured. For `Cc1nc(NC(=O)N2C[C@@H](C(F)(F)F)C[C@H]2C(N)=S)sc1-c1ccnc(C(C)(C)C(F)(F)F)c1` [Compound 12, (2S,4S)-2-carbamothioyl-N-(4-methyl-5-(2-(1,1,1-trifluoro-2-methylpropan-2-yl)pyridin-4-yl)thiazol-2-yl)-4-(trifluoromethyl)pyrrolidine-1-carboxamide], the IC50 in data set [1] was 500 to 1000 nM; on PI3K-β, more than 1000 nM; at PI3K-γ, more than 1000 nM; at PI3K-δ, more than 1000 nM.

Turning to `Cc1nc(NC(=O)N2[C@@H](C)CC[C@H]2C(N)=S)sc1-c1ccnc(C(C)(C)C(F)(F)F)c1` [Compound 10, (2S,5S)-2-carbamothioyl-5-methyl-N-(4-methyl-5-(2-(1,1,1-trifluoro-2-methylpropan-2-yl)pyridin-4-yl)thiazol-2-yl)pyrrolidine-1-carboxamide], the IC50 (in data set [1]; on PI3K-β; on PI3K-γ; at PI3K-δ) was more than 1000 nM in each case.

In the case of `Cc1nc(NC(=O)N2C[C@@H](F)C[C@H]2C(N)=S)sc1-c1ccnc(C(C)(C)C(F)(F)F)c1` [Compound 3, (2S,4S)-2-carbamothioyl-4-fluoro-N-(4-methyl-5-(2-(1,1,1-trifluoro-2-methylpropan-2-yl)pyridin-4-yl)thiazol-2-yl)pyrrolidine-1-carboxamide], the IC50 in data set [1] is 50 to 200 nM; at PI3K-β it was more than 1000 nM; at PI3K-γ, 200 to 500 nM; on PI3K-δ it was more than 1000 nM.

`Cc1nc(NC(=O)N2CC(F)(F)C[C@H]2C(N)=S)sc1-c1ccnc(C(C)(C)C(F)(F)F)c1` [Compound 1, (S)-2-carbamothioyl-4,4-difluoro-N-(4-methyl-5-(2-(1,1,1-trifluoro-2-methylpropan-2-yl)pyridin-4-yl)thiazol-2-yl)pyrrolidine-1-carboxamide]: the IC50 was 200 to 500 nM in data set [1], more than 1000 nM on PI3K-β, more than 1000 nM on PI3K-γ and 200 to 500 nM on PI3K-δ.

As to `Cc1nc(NC(=O)N2CCC[C@H]2C(N)=S)sc1-c1ccnc(C(C)(C)C(F)(F)F)c1` [Compound 5, (S)-2-carbamothioyl-N-(4-methyl-5-(2-(1,1,1-trifluoro-2-methylpropan-2-yl)pyridin-4-yl)thiazol-2-yl)pyrrolidine-1-carboxamide], the 50% inhibitory concentration (IC50) in data set [1] is not above 50 nM; on PI3K-β, more than 1000 nM; on PI3K-γ it was 200 to 500 nM; at PI3K-δ, 200 to 500 nM. In addition, the “glomerular lesions (glomerular lesion score)” value in the data set with NZBWF1/J mice (4 weeks after uninephrectomy, histology, FIG. 1C) is recorded as “remained stable”. For the same compound, the kidney-to-body weight ratio result with NZBWF1/J mice (4 weeks, female uninephrectomized NZBWF1/J mice) was “notably decreased”. In the data set with NZBWF1/J mice (4 weeks, female uninephrectomized NZBWF1/J mice, vs vehicle, FIG. 1A), the “albuminuria (urinary albumin to creatinine ratio)” value is given as “significant reductions”. Also, the “blood urea nitrogen levels” value in the data set with NZBWF1/J mice (4 weeks, female uninephrectomized NZBWF1/J mice, vs vehicle, FIG. 1B) was “significant reductions”. Further, the blood glucose result in data set [2] is on record as “modest increase”. Besides, in data set [3], the blood insulin concentration entry is “no increase”.

Consider `Cc1nc(NC(=O)N2[C@H](C)CC[C@H]2C(N)=S)sc1-c1ccnc(C(C)(C)C(F)(F)F)c1` [Compound 9, (2S,5R)-2-carbamothioyl-5-methyl-N-(4-methyl-5-(2-(1,1,1-trifluoro-2-methylpropan-2-yl)pyridin-4-yl)thiazol-2-yl)pyrrolidine-1-carboxamide], for which the IC50 in data set [1] is 200 to 500 nM; at PI3K-β it was more than 1000 nM; on PI3K-γ, more than 1000 nM; at PI3K-δ, more than 1000 nM.

On to `Cc1nc(NC(=O)N2CC3(C[C@H]2C(N)=S)CC3(F)F)sc1-c1ccnc(C(C)(C)C(F)(F)F)c1` (stereo partly drawn) [Compound 4, (S)-6-carbamothioyl-N-(4-methyl-5-(2-(1,1,1-trifluoro-2-methylpropan-2-yl)pyridin-4-yl)thiazol-2-yl)-1,1-difluoro-5-azaspiro[2,4]heptane-5-carboxamide], for which the IC50 (in data set [1]; at PI3K-β; at PI3K-γ; on PI3K-δ) was more than 1000 nM in each case.

As for `Cc1nc(NC(=O)N2CC[C@H](O)[C@H]2C(N)=S)sc1-c1ccnc(C(C)(C)C(F)(F)F)c1` [Compound 14, (2S,3S)-2-carbamothioyl-3-hydroxy-N-(4-methyl-5-(2-(1,1,1-trifluoro-2-methylpropan-2-yl)pyridin-4-yl)thiazol-2-yl)pyrrolidine-1-carboxamide], the IC50 in data set [1] was not above 50 nM; at PI3K-β, more than 1000 nM; on PI3K-γ, 200 to 500 nM; at PI3K-δ, 200 to 500 nM.

Turning to `CO[C@H]1C[C@@H](C(N)=S)N(C(=O)Nc2nc(C)c(-c3ccnc(C(C)(C)C(F)(F)F)c3)s2)C1` [Compound 8, (2S,4S)-2-carbamothioyl-4-methoxy-N-(4-methyl-5-(2-(1,1,1-trifluoro-2-methylpropan-2-yl)pyridin-4-yl)thiazol-2-yl)pyrrolidine-1-carboxamide], the IC50 was 50 to 200 nM in data set [1], more than 1000 nM at PI3K-β, 200 to 500 nM on PI3K-γ and 500 to 1000 nM at PI3K-δ.

For the compound `Cc1nc(NC(=O)N2C[C@H](F)C[C@H]2C(N)=S)sc1-c1ccnc(C(C)(C)C(F)(F)F)c1` [Compound 2, (2S,4R)-2-carbamothioyl-4-fluoro-N-(4-methyl-5-(2-(1,1,1-trifluoro-2-methylpropan-2-yl)pyridin-4-yl)thiazol-2-yl)pyrrolidine-1-carboxamide], the 50% inhibitory concentration (IC50) in data set [1] is 50 to 200 nM; at PI3K-β, more than 1000 nM; on PI3K-γ, 200 to 500 nM; at PI3K-δ it was 200 to 500 nM.

On to `Cc1nc(NC(=O)N2C[C@H](O)C[C@H]2C(N)=S)sc1-c1ccnc(C(C)(C)C(F)(F)F)c1` [Compound 13, (2S,4R)-2-carbamothioyl-4-hydroxy-N-(4-methyl-5-(2-(1,1,1-trifluoro-2-methylpropan-2-yl)pyridin-4-yl)thiazol-2-yl)pyrrolidine-1-carboxamide], for which the IC50 in data set [1] is not above 50 nM; on PI3K-β it was more than 1000 nM; at PI3K-γ, 200 to 500 nM; at PI3K-δ it was 200 to 500 nM.

With `Cc1nc(NC(=O)N2CCC[C@@]2(C)C(N)=S)sc1-c1ccnc(C(C)(C)C(F)(F)F)c1` [Compound 6, (S)-2-carbamothioyl-2-methyl-N-(4-methyl-5-(2-(1,1,1-trifluoro-2-methylpropan-2-yl)pyridin-4-yl)thiazol-2-yl)pyrrolidine-1-carboxamide], the IC50 (in data set [1]; on PI3K-β; on PI3K-γ; on PI3K-δ) was more than 1000 nM in each case.

For the compound `CO[C@@H]1C[C@@H](C(N)=S)N(C(=O)Nc2nc(C)c(-c3ccnc(C(C)(C)C(F)(F)F)c3)s2)C1` [Compound 7, (2S,4R)-2-carbamothioyl-4-methoxy-N-(4-methyl-5-(2-(1,1,1-trifluoro-2-methylpropan-2-yl)pyridin-4-yl)thiazol-2-yl)pyrrolidine-1-carboxamide], the concentration for half-maximal inhibition (IC50) in data set [1] was 50 to 200 nM; at PI3K-β, more than 1000 nM; on PI3K-γ it was 200 to 500 nM; at PI3K-δ it was 500 to 1000 nM.
